Measurements: the NIST ThermoML archive (doi:10.1021/je700266n)

Assay: xn = mol fraction of the nth substance listed
Settings: 101 kPa, Liquid

CCCCn1cc[n+](C)c1.F[P-](F)(F)(F)(F)F [1-butyl-3-methylimidazolium hexafluorophosphate] + CC#N
mass density [kg/m3]
Settings	x1 = 0.1	x1 = 0.1997	x1 = 0.3001	x1 = 0.4002	x1 = 0.4995	x1 = 0.5996	x1 = 0.7001	x1 = 0.8	x1 = 0.8992	x1 = 1
293.15 K	974.06	1089.47	1167.16	1221.32	1261.57	1293.48	1318.51	1339.25	1356.81	1371.57
298.15 K	969.05	1084.37	1162.48	1216.77	1257.1	1289.08	1314.15	1334.92	1352.54	1367.22
303.15 K	963.9	1079.44	1157.73	1212.1	1252.55	1284.55	1309.69	1330.47	1348.19	1362.86
308.15 K	958.79	1074.57	1153.01	1207.52	1248.07	1280.12	1305.51	1326.23	1343.83	1358.56
313.15 K	953.96	1070.04	1148.67	1203.29	1243.97	1276.12	1301.33	1322.21	1339.74	1354.3
323.15 K	943.95	1060.53	1139.57	1194.5	1235.37	1267.65	1292.68	1313.73	1331.33	1345.98
333.15 K	933.35	1050.42	1129.8	1184.99	1226.09	1258.64	1283.91	1305.14	1323.02	1337.7
343.15 K	923.24	1040.99	1120.72	1176.43	1217.82	1250.62	1276.41	1297.84	1315.94	1330.76

CCCCn1cc[n+](C)c1.F[P-](F)(F)(F)(F)F [1-butyl-3-methylimidazolium hexafluorophosphate] + c1ccccc1
mass density [kg/m3]
Settings	293.15 K	298.15 K	303.15 K	308.15 K	313.15 K	323.15 K	333.15 K	343.15 K
x1 = 0.34	1166.34	1161.8	1157.16	1152.56	1148.35	1139.5	1129.94	1120.87
x1 = 0.3995	1197.59	1193.15	1188.62	1184.16	1180.04	1171.45	1162.13	1153.45
x1 = 0.4999	1239.2	1234.86	1230.38	1226.01	1222.02	1213.65	1204.95	1196.96
x1 = 0.5999	1274.25	1269.99	1265.61	1261.3	1257.39	1249.14	1240.67	1233.13
x1 = 0.7	1304.29	1299.95	1295.6	1291.34	1287.35	1279.03	1270.76	1263.66
x1 = 0.8003	1329.79	1325.97	1321.58	1317.28	1313.09	1304.76	1296.68	1289.79
x1 = 0.9001	1351.51	1347.29	1342.85	1338.55	1334.45	1326.2	1317.85	1310.77
x1 = 1	1371.57	1367.22	1362.86	1358.56	1354.3	1345.98	1337.7	1330.76

CCCCn1cc[n+](C)c1.F[B-](F)(F)F [1-butyl-3-methylimidazolium tetrafluoroborate] + CC#N
mass density [kg/m3]
Settings	x1 = 0.1	x1 = 0.1997	x1 = 0.3	x1 = 0.4005	x1 = 0.4995	x1 = 0.6015	x1 = 0.6998	x1 = 0.799	x1 = 0.9012	x1 = 1
293.15 K	913.54	993.5	1047.76	1086.95	1116.42	1138.87	1156.73	1171.64	1185.23	1195.71
298.15 K	908.78	989.03	1043.55	1082.89	1112.51	1135.03	1152.98	1167.96	1181.58	1192.07
303.15 K	903.94	984.51	1039.25	1078.74	1108.44	1131.08	1149.11	1164.16	1177.8	1188.37
308.15 K	899.1	980.03	1034.99	1074.62	1104.46	1127.17	1145.29	1160.39	1174.09	1184.72
313.15 K	894.51	975.82	1031.1	1070.84	1100.65	1123.64	1141.82	1157	1170.73	1181.43
323.15 K	885.05	967.07	1022.86	1062.98	1093.19	1116.23	1134.55	1149.88	1163.8	1174.49
333.15 K	874.91	957.71	1013.98	1054.45	1084.93	1108.14	1126.63	1142.09	1156.07	1166.89
343.15 K	866.42	948.85	1005.39	1046.32	1077.27	1100.67	1119.31	1134.92	1149.06	1159.97

CCCCn1cc[n+](C)c1.F[B-](F)(F)F [1-butyl-3-methylimidazolium tetrafluoroborate] + CCCO
mass density [kg/m3]
Settings	293.15 K	298.15 K	303.15 K	308.15 K	313.15 K	323.15 K	333.15 K	343.15 K
x1 = 0.3999	1054.66	1051.03	1047.17	1043.37	1039.88	1032.41	1024.28	1016.75
x1 = 0.4498	1072.68	1068.9	1065.03	1061.22	1057.72	1050.32	1042.29	1034.83
x1 = 0.5001	1089.08	1085.28	1081.39	1077.57	1074.09	1066.73	1058.77	1051.38
x1 = 0.6001	1117.7	1113.99	1110.15	1106.39	1103.01	1095.73	1087.82	1080.57
x1 = 0.6978	1141.41	1137.71	1133.91	1130.15	1126.78	1119.64	1111.83	1104.68
x1 = 0.8002	1163	1159.35	1155.61	1151.92	1148.61	1141.54	1133.81	1126.78
x1 = 0.9003	1180.65	1176.99	1173.25	1169.56	1166.26	1159.25	1151.58	1144.59
x1 = 1	1195.71	1192.07	1188.37	1184.72	1181.43	1174.49	1166.89	1159.97
